Results taken from patent US9353115B2, “Immune system modulators” (JANUS BIOTHERAPEUTICS, INC., priority 2011, dated 2016).

What was measured:
human TLR9 (hTLR9) = human TLR9 (hTLR9) (Homo sapiens (Human), UniProt Q9NR96); test: TLR9 antagonist assay in HEK-Blue-hTLR9 cells (SEAP reporter, ODN 2006 agonist); assay type: cell-based; conditions: inhibition of hTLR9 dependent SEAP production, hTLR9 agonist such as ODN 2006, 1 μM, read-out: hTLR9 antagonism IC50
Text: HEK-Blue™-hTLR9 cells were obtained from InvivoGen Inc. and used to determine test compound antagonism of human TLR9 (hTLR9) driven responses. HEK-Blue™-hTLR9 cells are designed for studying the stimulation of human TLR9 by monitoring the activation of NF-kB. As described by the manufacturer, “HEK-Blue™-hTLR9 cells were obtained by co-transfection of the hTLR9 gene and an optimized secreted embryonic alkaline phosphatase (SEAP) reporter gene into HEK293 cells. The SEAP reporter gene is placed under the control of the IFN-b minimal promoter fused to five NF-kB and AP-1 binding sites. Stimulation with a TLR9 ligand activates NF-kB and AP-1 which induces the production of SEAP. Levels of SEAP can be easily determined with QUANTI-Blue™ a detection medium that turns purple/blue in the presence of alkaline phosphatase”. […]
Invivogen's QUANTI-Blue™ was prepared following the manufacturer's instructions. […] SEAP levels were determined using a spectrophotometer at 620 nm.
The concentration dependent inhibition of hTLR9 dependent SEAP production was expressed as the concentration of compound which produced half the maximal level of SEAP induced by the hTLR agonist alone. Percent activity was calculated for each observation using the formula: % activity=((observed O.D.−background O.D.)/(agonist only O.D.−background O.D.))*100. […]

TLR9 = TLR9 (Mus musculus (Mouse), UniProt Q9EQU3); test: In vivo TLR knockdown: serum IL-12 after CpG ODN 1668 TLR9 agonist injection in C57Bl/6J mice; conditions: male C57Bl/6J mice; single intraperitoneal dose; CpG ODN 1668 i.p. 1 hr later; serum IL-12 ELISA 3 hours post agonist
Sequence of TLR9 (Q9EQU3 26-1032): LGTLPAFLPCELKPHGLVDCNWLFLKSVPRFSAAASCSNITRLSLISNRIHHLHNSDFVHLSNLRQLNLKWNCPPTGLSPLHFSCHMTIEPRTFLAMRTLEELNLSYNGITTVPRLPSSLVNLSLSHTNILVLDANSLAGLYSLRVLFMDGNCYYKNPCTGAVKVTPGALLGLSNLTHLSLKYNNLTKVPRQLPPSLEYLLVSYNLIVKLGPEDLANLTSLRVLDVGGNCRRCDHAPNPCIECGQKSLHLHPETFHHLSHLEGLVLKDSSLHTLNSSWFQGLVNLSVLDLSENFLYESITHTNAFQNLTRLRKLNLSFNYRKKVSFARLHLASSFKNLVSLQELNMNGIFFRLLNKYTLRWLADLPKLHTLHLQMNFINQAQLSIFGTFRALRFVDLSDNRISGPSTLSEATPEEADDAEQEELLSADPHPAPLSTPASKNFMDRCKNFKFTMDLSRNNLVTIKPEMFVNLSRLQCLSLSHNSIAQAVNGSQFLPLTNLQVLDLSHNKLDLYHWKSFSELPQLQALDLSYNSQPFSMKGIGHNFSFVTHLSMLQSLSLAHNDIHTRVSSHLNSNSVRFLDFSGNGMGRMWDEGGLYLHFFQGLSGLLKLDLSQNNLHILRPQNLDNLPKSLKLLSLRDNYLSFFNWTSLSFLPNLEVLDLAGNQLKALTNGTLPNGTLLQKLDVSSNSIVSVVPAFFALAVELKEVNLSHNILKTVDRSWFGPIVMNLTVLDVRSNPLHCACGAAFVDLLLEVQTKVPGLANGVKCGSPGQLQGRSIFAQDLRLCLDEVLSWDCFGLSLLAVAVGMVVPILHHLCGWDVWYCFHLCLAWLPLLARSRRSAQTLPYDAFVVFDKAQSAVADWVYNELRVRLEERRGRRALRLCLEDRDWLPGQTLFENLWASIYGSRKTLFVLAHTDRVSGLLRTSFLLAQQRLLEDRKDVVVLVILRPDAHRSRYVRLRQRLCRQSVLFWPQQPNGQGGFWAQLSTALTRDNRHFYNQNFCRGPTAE
Experimental: The Effects of Test Articles on Toll-Like Receptor (TLR) Knockdown Following a Single Intraperitoneal Dose to Male C57Bl/6 Mice.
Toll-Like Receptor (TLR) knockdown effect of test articles was evaluated in a C57Bl/6J mouse. Primary end points included a terminal blood collection for analysis of cytokine production in response to CpG-DNA TLR9 agonist injection. Male C57Bl/6J mice, at ˜8 weeks of age from Jackson Laboratories were used. Test groups were 3 mice per treatment group and the groups were administered test article in a series of descending doses within the range of 400 μg to 10 μg. Test article treatment was dosed at T=0 hr by intraperitoneal injection. Agonist (CpG ODN 1668) treatment was dosed one hour later, T=1 hr by intraperitoneal injection. Necropsy was performed 3 hours post agonist treatment, T=4 hr. Blood samples were collected into serum separator tubes, allowed to clot at room temperature for at least 20 minutes, centrifuged at ambient temperature at 3000 g for 10 minutes, and the serum was extracted. ELISA was performed to determine murine IL-12 levels following manufacture's protocol (BioLegend Inc.). Serum IL-12 levels were calculated and plotted versus administered dose of antagonist and inhibitory dose at 50% (ID50) was determined.

Sequence of human TLR9 (hTLR9) (Q9NR96 26-1032): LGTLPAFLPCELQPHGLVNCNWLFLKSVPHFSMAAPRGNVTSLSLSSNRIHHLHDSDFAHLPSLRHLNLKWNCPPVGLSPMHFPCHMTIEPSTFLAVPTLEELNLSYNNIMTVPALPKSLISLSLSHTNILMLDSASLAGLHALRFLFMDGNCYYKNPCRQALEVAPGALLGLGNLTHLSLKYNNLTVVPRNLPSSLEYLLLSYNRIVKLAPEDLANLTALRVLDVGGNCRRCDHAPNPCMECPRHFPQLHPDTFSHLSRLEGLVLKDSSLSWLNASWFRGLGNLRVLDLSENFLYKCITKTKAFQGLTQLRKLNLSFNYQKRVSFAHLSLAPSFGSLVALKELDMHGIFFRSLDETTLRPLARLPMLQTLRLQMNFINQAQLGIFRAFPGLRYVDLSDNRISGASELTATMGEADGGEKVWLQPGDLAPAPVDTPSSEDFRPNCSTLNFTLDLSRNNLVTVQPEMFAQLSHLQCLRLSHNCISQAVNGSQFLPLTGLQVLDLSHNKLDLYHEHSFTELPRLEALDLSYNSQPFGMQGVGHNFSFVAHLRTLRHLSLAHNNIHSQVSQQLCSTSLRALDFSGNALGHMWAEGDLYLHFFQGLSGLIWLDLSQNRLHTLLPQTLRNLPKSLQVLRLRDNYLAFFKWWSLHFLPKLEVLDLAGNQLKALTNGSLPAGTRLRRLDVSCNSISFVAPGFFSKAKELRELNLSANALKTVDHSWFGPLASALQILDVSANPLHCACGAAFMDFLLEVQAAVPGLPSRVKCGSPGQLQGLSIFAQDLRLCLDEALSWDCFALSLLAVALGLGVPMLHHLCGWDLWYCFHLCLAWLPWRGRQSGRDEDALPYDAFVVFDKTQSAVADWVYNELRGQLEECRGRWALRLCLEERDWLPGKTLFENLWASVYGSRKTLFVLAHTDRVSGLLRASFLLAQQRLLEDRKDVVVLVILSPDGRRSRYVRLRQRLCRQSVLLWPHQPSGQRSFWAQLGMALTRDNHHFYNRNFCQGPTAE

| Compound | IC50 (human TLR9 (hTLR9)) [nM] | In vivo TLR antagonism ID50 (inhibitory dose at 50% of serum IL-12) (TLR9) [µg] |
| --- | --- | --- |
| CN1CCN(CCn2c(O)nc3c(NCCN4CCOCC4)nc(-c4ccccc4)nc32)CC1 [Example 63] | 497 |  |
| CN1CCN(CCNc2nc(-c3ccccc3)nc3c2nc(O)n3CCN2CCOCC2)CC1 [Example 57] | 271 | 348 |
